Laboratory results: ChEMBL document CHEMBL1932978, “Inhibitors of human 2,3-oxidosqualene cyclase (OSC) discovered by virtual screening” (Bioorg Med Chem Lett, 2012)
pIC50: −log10 of the molar value.

Tests used:
[1] = biological target: T1, Lanosterol synthase (Homo sapiens, UniProt P48449); test: Inhibition of human OSC expressed in Saccharomyces cerevisiae by gas chromatography
T1 sequence (P48449 whole entry): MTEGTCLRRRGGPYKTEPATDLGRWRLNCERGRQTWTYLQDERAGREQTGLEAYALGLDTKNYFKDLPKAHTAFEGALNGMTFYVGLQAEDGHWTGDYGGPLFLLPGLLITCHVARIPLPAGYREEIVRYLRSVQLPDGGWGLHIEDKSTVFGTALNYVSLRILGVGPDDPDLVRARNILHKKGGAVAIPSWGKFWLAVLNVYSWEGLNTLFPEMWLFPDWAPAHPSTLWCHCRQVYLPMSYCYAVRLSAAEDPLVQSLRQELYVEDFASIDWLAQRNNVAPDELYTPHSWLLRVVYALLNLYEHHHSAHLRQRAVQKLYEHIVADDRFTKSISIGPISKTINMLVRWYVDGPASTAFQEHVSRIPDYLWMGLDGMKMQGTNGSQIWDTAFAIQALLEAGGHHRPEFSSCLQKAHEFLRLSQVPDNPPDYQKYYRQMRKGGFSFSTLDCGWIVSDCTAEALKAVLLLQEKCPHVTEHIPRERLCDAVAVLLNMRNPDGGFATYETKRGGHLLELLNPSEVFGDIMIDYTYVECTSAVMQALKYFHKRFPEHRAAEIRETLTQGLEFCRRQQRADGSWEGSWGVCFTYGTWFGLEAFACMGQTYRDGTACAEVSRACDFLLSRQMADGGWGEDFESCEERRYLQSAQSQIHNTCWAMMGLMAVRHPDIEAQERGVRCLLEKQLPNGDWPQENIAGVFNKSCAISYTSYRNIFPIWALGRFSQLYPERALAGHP

[2] = biological target: T2, Lanosterol synthase (Homo sapiens) (UniProt P48449); test: Inhibition of human OSC expressed in Saccharomyces cerevisiae at 20 uM by gas chromatography relative to LDAO2
T2 sequence (whole entry): T1 sequence (P48449 whole entry)

pIC50 [1]	inhibition [2] [%]	Compound
5.32	96	S=C(NCc1ccccc1)Nc1ccc(Cc2ccncc2)cc1
4.97	83	CN(C)Cc1ccc(CNC(=O)COc2ccc3ccccc3c2)cc1
5.86	101	CN(C)Cc1ccc(CNC(=O)c2ccc(C(F)(F)F)cc2)cc1
	59	O=C(Cc1ccc(Cl)cc1)c1ccc(C(=O)NCCCn2ccnc2)[nH]1

The remaining lines, values behind:

Compound	pIC50 [1]	inhibition [2] [%]
CN(C)Cc1ccc(CNCc2cnn(-c3ccccc3)n2)cc1		77
O=C(CCc1ccc(CN2CCCC2)cc1)Cn1cnc2sc(-c3ccccc3)cc2c1=O	5.30	87
Cc1cc(CNCc2ccc(CN(C)C)cc2)c(C)n1CC(C)C		27
COc1ccc(-n2c(C)cc(CNCc3ccc(CN(C)C)cc3)c2C)cc1		75
CCCCCCCCCCCC[N+](C)(C)[O-]	5.20	100
CN(C)Cc1ccc(CNC(=O)Nc2ccc(Cl)cc2)cc1	5.51	97
